Test results reported in patent publication US20240174618A1, “SUBSTITUTED (2-HETEROARYLOXYPHENYL)SULFONATES, SALTS THEREOF AND THEIR USE AS HERBICIDAL AGENTS” (Bayer Aktiengesellschaft, priority 2021, published 2024).

Columns and labels:
Assay type in all cases: in vivo
[1] = tested on: Abutilon theophrasti (ABUTH); test: A. Herbicidal pre-emergence efficacy, ABUTH; settings: scored visually after about 3 weeks vs untreated controls
Procedure, shortened: (§1)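 Applied before emergence onto covering soil at rates of 1280 g/ha or less, using 600 L/ha spray water with 0.5% additive. Scoring: visual % efficacy after ~3 weeks, greenhouse.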

[2] = tested on: Digitaria sanguinalis (DIGSA); test: A. Herbicidal pre-emergence efficacy, DIGSA; settings: scored visually after about 3 weeks vs untreated controls
Procedure, shortened: as §1

[3] = tested on: Kochia scoparia (KCHSC); test: B. Herbicidal post-emergence efficacy, KCHSC; settings: for Post-emergence efficacy against KCHSC in %: rated visually after about 3 weeks; for Post-emergence efficacy against KCHSC: 1280 g/ha
Procedure, shortened: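 Visual percent efficacy relative to untreated controls (0% unaffected, 100% dead), scored roughly 3 weeks after foliar spraying of one-leaf-stage pot-grown plants with WP or EC preparations at application rates up to 1280 g/ha in 600 L/ha water containing 0.5% additive.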

[4] = tested on: Alopecurus myosuroides (ALOMY); test: C. Herbicidal pre-emergence efficacy, ALOMY; settings: scored after about 3 weeks
Procedure, shortened: (§2)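 Pre-emergence test: formulated compounds sprayed as aqueous suspension or emulsion with 0.5% additive at 600 l/ha onto soil covering sown seeds, at rates corresponding to 320 g/ha or less. After about 3 weeks in greenhouse, efficacy scored visually as percent versus untreated controls (100% = plants dead).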

[5] = tested on: Setaria viridis (SETVI); test: C. Herbicidal pre-emergence efficacy, SETVI; settings: scored after about 3 weeks
Procedure, shortened: as §2

[6] = tested on: Kochia scoparia (KCHSC); test: C. Herbicidal pre-emergence efficacy, KCHSC
Procedure, shortened: as §2

[7] = tested on: Amaranthus retroflexus (AMARE); test: E. Herbicidal post-emergence efficacy, AMARE
Procedure, shortened: (§3)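 Compounds applied at 320 g/ha or less as a foliar spray (600 l/ha, 0.5% additive) to one-leaf-stage greenhouse plants grown in sandy loam. Damage is visually scored in percent relative to untreated plants after about 3 weeks.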

[8] = tested on: Setaria viridis (SETVI); test: E. Herbicidal post-emergence efficacy, SETVI
Procedure, shortened: as §3

SMILES	Pre-emergence efficacy against ABUTH ([1]; 80 g/ha) [%]	Pre-emergence efficacy against ABUTH ([1]; 320 g/ha) [%]	Pre-emergence efficacy against ABUTH ([1]; 1280 g/ha) [%]	Pre-emergence efficacy against DIGSA ([2]; 80 g/ha) [%]	Pre-emergence efficacy against DIGSA ([2]; 320 g/ha) [%]	Pre-emergence efficacy against DIGSA ([2]; 1280 g/ha) [%]	Post-emergence efficacy against KCHSC in % ([3]; 320 g/ha) [%]	Post-emergence efficacy against KCHSC [3] [%]	Pre-emergence efficacy against ALOMY ([4]; 320 g/ha) [%]	Pre-emergence efficacy against SETVI ([5]; 80 g/ha) [%]	Pre-emergence efficacy against SETVI ([5]; 320 g/ha) [%]	Pre-emergence efficacy against KCHSC in % ([6]; application rate 80 g/ha) [%]	Pre-emergence efficacy against KCHSC in % ([6]; application rate 320 g/ha) [%]	Post-emergence efficacy against AMARE in % ([7]; application rate 320 g/ha) [%]	Post-emergence efficacy against SETVI in % ([8]; application rate 320 g/ha) [%]	Post-emergence efficacy against KCHSC in % ([3]; 80 g/ha) [%]	Pre-emergence efficacy against ALOMY ([4]; 80 g/ha) [%]	Post-emergence efficacy against AMARE in % ([7]; application rate 80 g/ha) [%]	Post-emergence efficacy against SETVI in % ([8]; application rate 80 g/ha) [%]
Cc1cccc(Oc2ncc(F)cn2)c1OS(=O)(=O)CCC(F)(F)F [Example I-45]	100	100	100	90	100	100	90	100	100	100	100	90	100	80	80				
O=S(=O)(CCCC(F)(F)F)Oc1c(F)cccc1Oc1ncc(F)cn1 [Example I-42]	100	100	100	100	100	100	100	100	100	100	100	100	100	100	100	90	100	100	100
O=S(=O)(CC1CC(F)(F)C1)Oc1c(F)cccc1Oc1ncc(Cl)cn1 [Example I-53]	100	100	100	100	100	100	90	90	100	100	100	100	100	100	100	90	90	100	100
O=S(=O)(CCCC(F)(F)F)Oc1c(F)cccc1Oc1ncc(Br)cn1 [Example I-41]		100	100	100	100	100	90	90	100	100	100	100	100	100	100	90		100	100
O=S(=O)(CCC(F)(F)F)Oc1c(Cl)cccc1Oc1ncc(Br)cn1 [Example I-32]		90	100		90	90	100	100	100	90	100	100	100	100	100	100		100	80
O=S(=O)(CCCC(F)(F)C(F)(F)F)Oc1c(F)cccc1Oc1ncc(Cl)cn1 [Example I-68]			100		90	100	100	100	90		100	100	100	100	100	100		90	100
